ChEMBL document CHEMBL1144685, “Naphthamides as novel and potent vascular endothelial growth factor receptor tyrosine kinase inhibitors: design, synthesis, and evaluation” (J Med Chem, 2008)
Activity calls are given as the source filed them. The calls are words filed in the database; no cut-off is given here.

Experiments:
[1] = Oral bioavailability in Sprague-Dawley rat at 10 mg/kg; format: ADME, organism-based; settings: in vivo
HUVEC [2] = test: cells; settings: Homo sapiens
Description: Inhibition of bFGF-induced proliferation of HUVEC cells

[3] = Intrinsic clearance in rat liver microsomes; format: ADME, Microsome
Cytochrome P450 2D6 = Cytochrome P450 2D6 (Homo sapiens, UniProt P10635)
[4] = Mean retention time in Sprague-Dawley rat at 1 mg/kg, iv; format: ADME, organism-based; design: dose 1 mg/kg, route intravenous; settings: in vivo
Cytochrome P450 3A4 = Cytochrome P450 3A4 (Homo sapiens, UniProt P08684)
[5] = molecular target: Vascular endothelial growth factor receptor 2 (Homo sapiens, UniProt P35968)
Description: Inhibition of KDR by HTRF assay

[6] = Cmax in Sprague-Dawley rat at 10 mg/kg, po; format: ADME, organism-based; design: dose 10 mg/kg, route oral; settings: in vivo
[7] = AUC (0 to 24 hrs) in Sprague-Dawley rat at 10 mg/kg, po; format: ADME, organism-based; design: time < 24 hr, dose 10 mg/kg, route oral; settings: plasma
[8] = Volume of distribution at steady state in Sprague-Dawley rat at 1 mg/kg, iv; format: ADME, organism-based; design: dose 1 mg/kg, route intravenous; settings: in vivo, read-out: Vdss
[9] = Clearance in Sprague-Dawley rat at 1 mg/kg, iv; format: ADME, organism-based; design: dose 1 mg/kg, route intravenous; settings: in vivo
[10] = Half life in Sprague-Dawley rat at 1 mg/kg, iv; format: ADME, organism-based; design: dose 1 mg/kg, route intravenous; settings: in vivo
HUVEC [11] = test: cells; settings: Homo sapiens; remark: listed apart in the source
Description: Inhibition of VEGF-induced proliferation of HUVEC cells

[12] = Intrinsic clearance in human liver microsomes; format: ADME, Microsome
[13] = AUC (0 to 24 hrs) in Sprague-Dawley rat at 2 mg/kg, po; format: ADME, organism-based; design: time < 24 hr, dose 2 mg/kg, route oral; settings: plasma
[14] = Cmax in Sprague-Dawley rat at 2 mg/kg, po; format: ADME, organism-based; design: dose 2 mg/kg, route oral; settings: in vivo
[15] = Oral bioavailability in Sprague-Dawley rat at 2 mg/kg; format: ADME, organism-based; settings: in vivo
Mus musculus [16] = species on record: Mus musculus; test: Inhibition of mouse KDR phosphorylation in BALB/c mouse lung assessed as phosphorylated Flk1 level by Delphia assay; format: functional, organism-based
Mus musculus [17] = test: Inhibition of vascular permeability in HEK293 cells over expressing recombinant mouse VEGF implanted CD1 nu/nu mouse at 30 mg/kg, po by Matrigel plug assay; format: functional, organism-based; design: dose 30 mg/kg
HT-29 [18] = test: Antitumor activity against human HT29 cell xenografted CD1 nu/nu mouse assessed as inhibition of tumor growth at 30 mg/kg, po after 10 days; format: functional, organism-based; design: dose 30 mg/kg
Mus musculus [19] = test: Inhibition of vascular permeability in HEK293 cells over expressing recombinant mouse VEGF implanted CD1 nu/nu mouse at 100 mg/kg, po by Matrigel plug assay; format: functional, organism-based; design: dose 100 mg/kg
HT-29 [20] = test: Antitumor activity against human HT29 cell xenografted CD1 nu/nu mouse assessed as inhibition of tumor growth at 10 mg/kg, po after 7 days; format: functional, organism-based; design: dose 10 mg/kg
[21] = Volume of distribution at steady state in Sprague-Dawley rat at 0.5 mg/kg, iv; format: ADME, organism-based; design: dose 0.5 mg/kg, route intravenous; settings: in vivo, read-out: Vdss
[22] = Clearance in Sprague-Dawley rat at 0.5 mg/kg, iv; format: ADME, organism-based; design: dose 0.5 mg/kg, route intravenous; settings: in vivo
[23] = Half life in Sprague-Dawley rat at 0.5 mg/kg, iv; format: ADME, organism-based; design: dose 0.5 mg/kg, route intravenous; settings: in vivo
[24] = Mean retention time in Sprague-Dawley rat at 0.5 mg/kg, iv; format: ADME, organism-based; design: dose 0.5 mg/kg, route intravenous; settings: in vivo
[25] = Mean retention time in Sprague-Dawley rat at 0.25 mg/kg, iv; format: ADME, organism-based; design: dose 0.25 mg/kg, route intravenous; settings: in vivo
[26] = Clearance in Sprague-Dawley rat at 0.25 mg/kg, iv; format: ADME, organism-based; design: dose 0.25 mg/kg, route intravenous; settings: in vivo
[27] = AUC (0 to 24 hrs) in Sprague-Dawley rat at 2 mg/kg; format: ADME, organism-based; design: time < 24 hr, dose 2 mg/kg; settings: plasma
[28] = Volume of distribution at steady state in Sprague-Dawley rat at 0.25 mg/kg, iv; format: ADME, organism-based; design: dose 0.25 mg/kg, route intravenous; settings: in vivo, read-out: Vdss
[29] = Cmax in Sprague-Dawley rat at 2 mg/kg; format: ADME, organism-based; design: dose 2 mg/kg; settings: in vivo
[30] = Half life in Sprague-Dawley rat at 0.25 mg/kg, iv; format: ADME, organism-based; design: dose 0.25 mg/kg, route intravenous; settings: in vivo

Chain of Cytochrome P450 2D6 (P10635 whole entry): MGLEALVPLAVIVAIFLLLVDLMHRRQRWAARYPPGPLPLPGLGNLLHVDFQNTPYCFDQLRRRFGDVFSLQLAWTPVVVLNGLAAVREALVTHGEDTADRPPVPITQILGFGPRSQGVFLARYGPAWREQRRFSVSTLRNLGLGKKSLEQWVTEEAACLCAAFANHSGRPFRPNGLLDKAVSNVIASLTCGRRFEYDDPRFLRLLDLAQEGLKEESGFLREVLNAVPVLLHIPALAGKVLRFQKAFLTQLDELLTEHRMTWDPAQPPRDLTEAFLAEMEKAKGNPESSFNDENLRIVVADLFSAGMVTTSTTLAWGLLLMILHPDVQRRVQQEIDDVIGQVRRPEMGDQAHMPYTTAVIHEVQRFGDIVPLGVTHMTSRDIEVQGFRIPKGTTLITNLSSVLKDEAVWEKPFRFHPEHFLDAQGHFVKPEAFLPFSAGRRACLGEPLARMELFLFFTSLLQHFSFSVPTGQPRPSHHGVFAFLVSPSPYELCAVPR
Chain of Vascular endothelial growth factor receptor 2 (P35968 whole entry): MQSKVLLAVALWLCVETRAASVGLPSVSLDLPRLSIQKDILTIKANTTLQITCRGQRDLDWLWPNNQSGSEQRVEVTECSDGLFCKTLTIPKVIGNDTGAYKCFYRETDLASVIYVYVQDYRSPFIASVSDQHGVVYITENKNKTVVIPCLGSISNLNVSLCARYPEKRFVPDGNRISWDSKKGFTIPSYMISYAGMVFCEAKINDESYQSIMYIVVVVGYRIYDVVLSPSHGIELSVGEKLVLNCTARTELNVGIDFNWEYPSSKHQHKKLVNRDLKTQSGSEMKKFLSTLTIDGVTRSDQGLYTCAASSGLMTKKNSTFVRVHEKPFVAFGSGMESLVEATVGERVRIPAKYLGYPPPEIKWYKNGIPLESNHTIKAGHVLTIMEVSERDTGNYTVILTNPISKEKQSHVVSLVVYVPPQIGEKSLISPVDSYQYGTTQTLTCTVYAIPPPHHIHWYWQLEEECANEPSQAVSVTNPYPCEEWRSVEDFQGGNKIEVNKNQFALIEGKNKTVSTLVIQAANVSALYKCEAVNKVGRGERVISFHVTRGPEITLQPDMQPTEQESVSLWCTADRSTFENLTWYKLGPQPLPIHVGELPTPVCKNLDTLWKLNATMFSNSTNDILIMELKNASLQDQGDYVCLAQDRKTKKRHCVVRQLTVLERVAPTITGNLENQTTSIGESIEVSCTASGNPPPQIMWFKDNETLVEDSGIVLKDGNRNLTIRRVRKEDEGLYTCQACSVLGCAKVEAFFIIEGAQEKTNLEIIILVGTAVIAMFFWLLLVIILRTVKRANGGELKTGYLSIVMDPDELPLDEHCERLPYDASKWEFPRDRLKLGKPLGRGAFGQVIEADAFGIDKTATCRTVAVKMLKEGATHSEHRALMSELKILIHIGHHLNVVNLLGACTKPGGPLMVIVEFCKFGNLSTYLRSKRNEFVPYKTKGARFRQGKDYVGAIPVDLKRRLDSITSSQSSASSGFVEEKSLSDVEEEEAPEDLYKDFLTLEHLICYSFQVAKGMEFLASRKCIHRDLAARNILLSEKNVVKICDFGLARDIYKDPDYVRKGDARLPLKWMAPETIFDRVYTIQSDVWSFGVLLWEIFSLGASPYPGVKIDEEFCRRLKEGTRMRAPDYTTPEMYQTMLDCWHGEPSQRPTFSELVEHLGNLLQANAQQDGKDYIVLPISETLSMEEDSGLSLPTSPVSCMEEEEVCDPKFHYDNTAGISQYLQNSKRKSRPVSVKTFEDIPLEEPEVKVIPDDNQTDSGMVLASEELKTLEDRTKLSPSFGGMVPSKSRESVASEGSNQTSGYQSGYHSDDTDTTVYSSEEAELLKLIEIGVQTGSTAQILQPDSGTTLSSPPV
Chain of Cytochrome P450 3A4 (P08684 whole entry): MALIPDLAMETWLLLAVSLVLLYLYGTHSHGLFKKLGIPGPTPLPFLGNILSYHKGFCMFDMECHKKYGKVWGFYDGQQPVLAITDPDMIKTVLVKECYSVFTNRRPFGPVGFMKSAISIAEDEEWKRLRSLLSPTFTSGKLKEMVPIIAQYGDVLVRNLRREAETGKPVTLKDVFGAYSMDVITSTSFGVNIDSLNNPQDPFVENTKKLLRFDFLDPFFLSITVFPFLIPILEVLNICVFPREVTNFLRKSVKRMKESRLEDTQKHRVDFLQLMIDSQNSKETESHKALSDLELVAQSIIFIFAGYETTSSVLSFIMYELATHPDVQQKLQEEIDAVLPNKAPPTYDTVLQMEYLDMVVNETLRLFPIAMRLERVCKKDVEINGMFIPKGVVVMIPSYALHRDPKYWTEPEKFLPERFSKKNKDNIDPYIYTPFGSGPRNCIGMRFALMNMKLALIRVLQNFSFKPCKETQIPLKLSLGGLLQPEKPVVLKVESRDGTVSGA

Row | SMILES | IC50 (HUVEC [2]) [nM] | IC50 [5] [nM] | IC50 (HUVEC [11]) [nM] | further results
1 | COc1cc2nccc(Oc3ccc4c(C(=O)Nc5ccncc5)cccc4c3)c2cc1OC | > 1140 | 2 | 2 | bioavailability [1]: 62%; microsomal CLint [3]: 80 µL/min/mg; IC50 (Cytochrome P450 2D6): 700 nM; MRT [4]: 2.5 h; IC50 (Cytochrome P450 3A4): 100 nM; Cmax [6]: 1690 ng/mL; AUC(0-t) at 24 h [7]: 11000 ng·h/mL; Vd [8]: 1.4 L/kg; clearance [9]: 10 mL/min/kg; half-life [10]: 1.8 h; microsomal CLint [12]: 30 µL/min/mg
2 | COc1cc2nccc(Oc3ccc4c(C(=O)Nc5ccccn5)cccc4c3)c2cc1OC | 286 | 0.8 | 2 | AUC(0-t) at 24 h [13]: 1240 ng·h/mL; microsomal CLint [3]: 90 µL/min/mg; IC50 (Cytochrome P450 2D6): > 50000 nM; MRT [4]: 7.8 h; IC50 (Cytochrome P450 3A4): 13000 nM; Cmax [14]: 200 ng/mL; bioavailability [15]: 45%; Vd [8]: 3.1 L/kg; clearance [9]: 6.67 mL/min/kg; half-life [10]: 6.1 h; microsomal CLint [12]: 80 µL/min/mg
3 | COc1cc2nccc(Oc3ccc4c(C(=O)Nc5ccc(Cl)cc5)cccc4c3)c2cc1OC | – | – | – | Activity (Mus musculus [16]): Active; Activity (Mus musculus [17]): Dose-dependent effect; Activity (HT-29 [18]): Active; Activity (Mus musculus [19]): Dose-dependent effect; Activity (HT-29 [20]): Active
4 | COc1cc2nccc(Oc3ccc4c(C(=O)Nc5ccc(C(C)(C)C)cc5)cccc4c3)c2cc1OC | 944 | 0.7 | 63 | –
5 | COc1cc2nccc(Oc3ccc4c(C(=O)Nc5ccc(C(F)(F)F)cc5)cccc4c3)c2cc1OC | 228 | 0.5 | 16 | –
6 | CNc1cc(Oc2ccc3c(C(=O)Nc4ccc(Cl)cc4)cccc3c2)ncn1 | > 1100 | 20 | 106 | –
7 | COc1ccc2c(Oc3ccc4c(C(=O)Nc5ccc(Cl)cc5)cccc4c3)ccnc2c1 | > 1100 | 1 | 8 | –
8 | COc1cc2nccc(Oc3ccc4c(C(=O)Nc5cccnc5)cccc4c3)c2cc1OC | 1100 | 0.8 | 2 | bioavailability [1]: 100%; microsomal CLint [3]: 90 µL/min/mg; IC50 (Cytochrome P450 2D6): 17000 nM; MRT [4]: 1.4 h; IC50 (Cytochrome P450 3A4): 2000 nM; Cmax [6]: 5710 ng/mL; AUC(0-t) at 24 h [7]: 27100 ng·h/mL; Vd [8]: 1.3 L/kg; clearance [9]: 15 mL/min/kg; half-life [10]: 1.1 h; microsomal CLint [12]: 90 µL/min/mg
9 | COc1cc2nccc(Oc3ccc4c(C(=O)Nc5ccc(F)cc5)cccc4c3)c2cc1OC | 305 | 1 | 2 | –
10 | CNC(=O)c1cc(Oc2ccc3c(C(=O)Nc4ccc(Cl)cc4)cccc3c2)ccn1 | > 1100 | 3 | 210 | –
11 | COc1cc2nccc(Oc3ccc4c(C(=O)Nc5ccc(C)cc5)cccc4c3)c2cc1OC | 548 | 0.5 | 2 | –
12 | O=C(Nc1ccc(Cl)cc1)c1cccc2cc(Oc3ccncc3)ccc12 | > 1100 | 18 | 220 | –
13 | COc1cc2nccc(Oc3ccc4c(C(=O)Nc5cccc(C(F)(F)F)c5)cccc4c3)c2cc1OC | 205 | 0.5 | 34 | –
14 | COc1cc2nccc(Oc3ccc4c(C(=O)Nc5cc(C)no5)cccc4c3)c2cc1OC | > 1140 | 1 | 7 | Vd [21]: 2.7 L/kg; microsomal CLint [3]: 40 µL/min/mg; IC50 (Cytochrome P450 2D6): > 50000 nM; IC50 (Cytochrome P450 3A4): 40000 nM; clearance [22]: 21.7 mL/min/kg; half-life [23]: 2.4 h; microsomal CLint [12]: 40 µL/min/mg; MRT [24]: 2.1 h
15 | O=C(Nc1ccc(Cl)cc1)c1cccc2cc(Oc3ncnc4[nH]ccc34)ccc12 | > 1140 | 28 | 37 | –
16 | COc1cc2nccc(Oc3ccc4c(C(=O)Nc5ccc(Cl)cc5)cccc4c3)c2cc1C(N)=O | 380 | 0.2 | 3 | –
17 | COc1cc2nccc(Oc3ccc4c(C(=O)Nc5cc(C)on5)cccc4c3)c2cc1OC | 250 | 0.6 | 6 | –
18 | COc1cc2nccc(Oc3ccc4c(C(=O)Nc5ccc(Cl)cc5)cccc4c3F)c2cc1OC | 280 | 0.3 | 2 | MRT [25]: 22 h; microsomal CLint [3]: 30 µL/min/mg; IC50 (Cytochrome P450 2D6): > 50000 nM; clearance [26]: 1.67 mL/min/kg; AUC(0-t) at 24 h [27]: 6010 ng·h/mL; Vd [28]: 2.4 L/kg; Cmax [29]: 610 ng/mL; IC50 (Cytochrome P450 3A4): > 50000 nM; bioavailability [15]: 50%; half-life [30]: 17 h; microsomal CLint [12]: 30 µL/min/mg
19 | COc1cc2nccc(Oc3ccc4c(C(=O)Nc5ccccc5)cccc4c3)c2cc1OC | 577 | 0.2 | 0.8 | –
20 | COc1cc2nccc(Oc3ccc4c(C(=O)NC(C)C)cccc4c3)c2cc1OC | > 1140 | 5 | 4 | –
